Measurements published in patent publication US5481013A, “Carboxylic acid derivatives” (Ciba-Geigy Corporation, priority 1992, dated 1996).

How the values were obtained:
Format in all cases: in vivo
Aphis craccivora = test: Activity against Aphis craccivora; conditions: 400 ppm spray on pea seedlings, 20° C., evaluated after 3 and 6 days, read-out: percentage reduction in population (% activity)
Method: Pea seedlings are infected with Aphis craccivora, subsequently sprayed with a spray mixture comprising 400 ppm of the active ingredient, and incubated at 20° C. The test is evaluated after 3 and 6 days. The percentage reduction in population (% activity) is determined by comparing the number of dead aphids on the treated plants with those on the untreated plants.

Heliothis virescens = test: Ovicidal/larvicidal activity on Heliothis virescens; conditions: 192 h, 400 ppm spray on eggs deposited on cotton, evaluated after 8 days, read-out: % reduction in population (hatching percentage of eggs and survival rate of caterpillars)
Method: Heliothis eggs which have been deposited on cotton are sprayed with a spray mixture prepared with an aqueous emulsion and comprising 400 ppm of the active ingredient. After 8 days, the hatching percentage of the eggs and the survival rate of the caterpillars are evaluated by comparing them with untreated control batches (% reduction in population).

[1] = tested on: Panonychus ulmi (OP- and carb.- resistant); test: Activity against Panonychus ulmi (OP- and carb.- resistant); conditions: 336 h, 400 ppm spray on apple seedlings, evaluated after 14 days, read-out: percentage reduction in population (% activity)
Method: Apple seedlings are populated with adult females of Panonychus ulmi. After seven days, the infested plants are sprayed to drip point with an aqueous emulsion comprising 400 ppm of the test compound and grown in the greenhouse. The test is evaluated after 14 days. The percentage reduction in population (% activity) is determined by comparing the number of dead spider mites on the treated plants with those on the untreated plants. […] An activity of over 80% is shown, in particular, by compound Nos. 1.01, 2.01, 2.07, 2.08, 2.10, 2.12 to 2.16, 2.22, 2.23, 2.26, 3.01, 4.01, 4.02, 4.06, 5.01 to 5.03, 5.05, 5.06, 5.08, 5.10, 5.11, 5.15, 5.16 and 5.20 to 5.25.

Ctenocephalides felis = test: Activity against Ctenocephalides felis; conditions: 504 h, 100 ppm in flea larvae nutrient medium, flea eggs, checked after 21 days
Method: 20 to 25 flea eggs are placed into a horizontally positioned 50 ml tissue culture flask into which 15 g of flea larvae nutrient medium comprising 100 ppm of the active ingredient to be tested have previously been introduced. The test flasks are incubated in an incubator at 26° to 27° C. and an atmospheric humidity of 60-70%. After 21 days, the flasks are checked for the presence of adult fleas, unhatched pupae and larvae.

Nilaparvata lugens [2] = test: Activity against Nilaparvata lugens (spray on rice plants); conditions: 504 h, 400 ppm spray on rice plants, larvae in stages 2 and 3, evaluated after 21 days, read-out: percentage reduction in population (% activity)
Method: Rice plants are treated with a spray mixture prepared with an aqueous emulsion and comprising 400 ppm of the active ingredient. After the spray coating has dried on, the rice plants are populated with plant hopper larvae in stages 2 and 3. The test is evaluated after 21 days. The percentage reduction in population (% activity) is determined by comparing the number of surviving plant hoppers on the treated plants with the number of plant hoppers on the untreated plants. […] An activity of over 80% is shown, in particular, by compound Nos. 1.01, 2.01 to 2.03, 2.07, 2.08, 2.10 to 2.16, 2.20, 2.22, 2.23, 2.26, 3.01, 4.01 to 4.06, 4.20, 5.01 to 5.06, 5.08, 5.10 to 5.12, 5.15, 5.16 and 5.20 to 5.25.

[3] = tested on: Heliothis virescens caterpillars; test: Activity against Heliothis virescens caterpillars; conditions: 144 h, 400 ppm spray on young soybean plants, first larval stage, evaluated after 6 days, read-out: percentage reduction in population or in feeding damage (% activity)
Method: Young soybean plants are sprayed with a spray mixture prepared with an aqueous emulsion and comprising 400 ppm of the active ingredient. After the spray coating has dried on, the soybean plants are populated with 10 Heliothis virescens in the first larval stage and placed into a plastic container. The test is evaluated after 6 days. The percentage reduction in population, or the percentage reduction in feeding damage (% activity), is determined by comparing the number of dead caterpillars and the feeding damage on the treated plants with those on the untreated plants.

Tetranychus urticae = test: Activity against Tetranychus urticae; conditions: 144 h, 400 ppm spray on young bean plants, mixed population, 6 days at 25° C, read-out: percentage reduction in population (% activity)
Method: Young bean plants are populated with a mixed population of Tetranychus urticae and, after 1 day, sprayed with a spray mixture prepared with an aqueous emulsion and comprising 400 ppm of the active ingredient. The plants are subsequently incubated for 6 days at 25° C and then evaluated. The percentage reduction in population (% activity) is determined by comparing the number of dead eggs, larvae and adults on the treated plants with those on the untreated ones.

Nilaparvata lugens [4] = test: Systemic activity against Nilaparvata lugens; conditions: 144 h, pots with rice plants in 400 ppm aqueous emulsion solution, larvae in stages 2 and 3, evaluated 6 days later, read-out: percentage reduction in population (% activity)
Method: Pots containing rice plants are placed into an aqueous emulsion solution comprising 400 ppm of the active ingredient. The rice plants are subsequently populated with larvae in stages 2 and 3. The test is evaluated 6 days later. The percentage reduction in population (% activity) is determined by comparing the numbers of plant hoppers on the treated plants with those on the untreated plants.

Bemisia tabaci = test: Activity against Bemisia tabaci; conditions: 336 h, 400 ppm spray on dwarf bean plants with nymphs, evaluated 14 days after application, read-out: activity (hatching percentages vs untreated control)
Method: Dwarf bean plants are placed into gauze cages and populated with adult Bemisia tabaci specimens (white fly). After oviposition has taken place, all adults are removed and, 10 days later, the plants with the nymphs located thereon are treated with a spray mixture of the active ingredients to be tested (concentration 400 ppm), which has been prepared with an aqueous emulsion. The test is evaluated for hatching percentages 14 days after the active ingredient has been applied by comparison with the untreated control batches. […] An activity of over 80% is shown, in particular, by compound Nos. 1.01, 2.01 to 2.08, 2.10 to 2.16, 2.22, 2.23, 3.01, 4.01, 4.02, 4.05, 4.06, 5.02, 5.03, 5.06 to 5.08, 5.10, 5.11, 5.20, 5.21 and 6.09.

Nephotettix cincticeps [5] = test: Systemic activity against Nephotettix cincticeps; conditions: 144 h, pots with rice plants in 400 ppm aqueous emulsion solution, larvae in stages 2 and 3, evaluated after 6 days, read-out: percentage reduction in population (% activity)
Method: Pots containing rice plants are placed into an aqueous emulsion solution comprising 400 ppm of the active ingredient. The rice plants are subsequently populated with larvae in stages 2 and 3. The test is evaluated after 6 days. The percentage reduction in population (% activity) is determined by comparing the number of leaf hoppers on the treated plants with those on the untreated plants.

Nephotettix cincticeps [6] = test: Activity against Nephotettix cincticeps (spray on rice plants); conditions: 504 h, 400 ppm spray on rice plants, larvae in stages 2 and 3, evaluated 21 days later, read-out: percentage reduction in population (% activity)
Method: Rice plants are treated with a spray mixture prepared with an aqueous emulsion and comprising 400 ppm of the active ingredient. After the spray coating has dried on, the rice plants are populated with leaf hopper larvae in stages 2 and 3. The test is evaluated 21 days later. The percentage reduction in population (% activity) is determined by comparing the number of surviving leaf hoppers on the treated plants with those on the untreated plants.

Dermanyssus gallinae = test: Activity against Dermanyssus gallinae; conditions: 72 h, 10 ppm solution, mites in different development stages, after 3 days
Method: 2 to 3 ml of a solution comprising 10 ppm of active ingredient and approximately 200 mites in different development stages are placed into a glass container which is open at the top. The container is then sealed with a cottonwool ball, shaken for 10 minutes until the mites are wetted completely, and then briefly turned over so that the remaining test solution can be absorbed by the cottonwool. After 3 days, the mortality of the mites is determined by counting the dead individuals; it is given as a percentage.

[7] = tested on: Crocidolomia binotalis caterpillars; test: Activity against Crocidolomia binotalis caterpillars; conditions: Brassica oleracea, 72 h; 400 ppm spray on young cabbage plants, third larval stage, evaluated after 3 days; read-out: percentage reduction in population or in feeding damage (% activity)
Method: Young cabbage plants are sprayed with a spray mixture prepared with an aqueous emulsion and comprising 400 ppm of the active ingredient. After the spray coating has dried on, the cabbage plants are infested with 10 Crocidolomia binotalis in the third larval stage and placed into a plastic container. The test is evaluated after 3 days. The percentage reduction in population, or the percentage reduction in feeding damage (% activity), is determined by comparing the number of dead caterpillars and the feeding damage on the treated plants with those on the untreated plants.

adult Anthonomus grandis = test: Activity against adult Anthonomus grandis; conditions: 72 h, 400 ppm spray on young cotton plants, adults, evaluated after 3 days, read-out: percentage reduction in population or in feeding damage (% activity)
Method: Young cotton plants are sprayed with a spray mixture prepared with an aqueous emulsion and comprising 400 ppm of the active ingredient. After the spray coating has dried on, the cotton plants are populated with 10 adult Anthonomus grandis and placed into a plastic container. The test is evaluated after 3 days. The percentage reduction in population, or the percentage reduction in feeding damage (% activity), is determined by comparing the number of dead beetles and the feeding damage on the treated plants with those on the untreated plants.

O=C(CCCC=C(F)F)OCCOc1ccc(OC(=O)c2ccccc2)cc1 [Compound 2.22]
> 80%: activity at 400 ppm (Aphis craccivora) | pest or weed control at 400 ppm (Heliothis virescens) | activity at 400 ppm [1] | pest or weed control at 100 ppm (Ctenocephalides felis) | activity at 400 ppm (Nilaparvata lugens [2]) | activity at 400 ppm [3] | activity at 400 ppm (Tetranychus urticae) | activity at 400 ppm (Nilaparvata lugens [4]) | pest or weed control at 400 ppm (Bemisia tabaci)

O=C(CCCCCCCC=C(F)F)OCCOc1ccc(Oc2ccccc2)cc1 [Compound 4.01]
> 80%: activity at 400 ppm (Nephotettix cincticeps [5]) | activity at 400 ppm [1] | activity at 400 ppm [3] | activity at 400 ppm (Nephotettix cincticeps [6]) | mortality at 10 ppm (Dermanyssus gallinae) | pest or weed control at 400 ppm (Bemisia tabaci)

O=C(CCCCCCCCCC=C(F)F)OCCOc1ccc(OCc2cccc(F)c2)cc1 [Compound 5.24]
> 80%: activity at 400 ppm (Nephotettix cincticeps [5]) | activity at 400 ppm [3] | activity at 400 ppm (Nephotettix cincticeps [6])

O=C(CCCCCCCCCC=C(F)F)OCCOc1ccc(Oc2ccccc2)cc1 [Compound 5.01]
> 80%: activity at 400 ppm [7] | activity at 400 ppm (adult Anthonomus grandis)

O=C(CCCCCCCCCC=C(F)F)OCCOc1ccc(Sc2ccccc2)cc1 [Compound 5.02]
> 80%: activity at 400 ppm [7] | activity at 400 ppm (adult Anthonomus grandis) | pest or weed control at 400 ppm (Bemisia tabaci)

O=C(CCCCCCCC=C(F)F)OCCOc1ccc(Sc2ccccc2)cc1 [Compound 4.02]
> 80%: activity at 400 ppm (Nephotettix cincticeps [5]) | activity at 400 ppm [1] | activity at 400 ppm [3] | activity at 400 ppm (Nephotettix cincticeps [6]) | mortality at 10 ppm (Dermanyssus gallinae) | pest or weed control at 400 ppm (Bemisia tabaci)

Cc1nsc(Oc2ccc(OCCOC(=O)CCCCCCCC=C(F)F)cc2)n1 [Compound 4.04]
> 80%: pest or weed control at 100 ppm (Ctenocephalides felis) | mortality at 10 ppm (Dermanyssus gallinae)

O=C(CCCCCCCCCC=C(F)F)OCCOc1ccc(OCc2ccc(Cl)cc2)cc1 [Compound 5.08]
> 80%: activity at 400 ppm [1] | pest or weed control at 100 ppm (Ctenocephalides felis) | activity at 400 ppm (Nilaparvata lugens [2]) | activity at 400 ppm (Tetranychus urticae)

CC(COC(=O)CCCCCCCC=C(F)F)Oc1ccc(Oc2ccccc2)cc1 (centres unmarked) [Compound 4.06]
> 80%: activity at 400 ppm (Nephotettix cincticeps [5]) | activity at 400 ppm [1] | activity at 400 ppm [3] | activity at 400 ppm (Nephotettix cincticeps [6]) | mortality at 10 ppm (Dermanyssus gallinae) | pest or weed control at 400 ppm (Bemisia tabaci)

CC(C)(C)c1ccc(COc2ccc(OCCOC(=O)CCCC=C(F)F)cc2)cc1 [Compound 2.26]
> 80%: pest or weed control at 400 ppm (Heliothis virescens) | activity at 400 ppm [1] | pest or weed control at 100 ppm (Ctenocephalides felis) | activity at 400 ppm (Nilaparvata lugens [2]) | activity at 400 ppm [3] | activity at 400 ppm (Tetranychus urticae) | activity at 400 ppm (Nephotettix cincticeps [6]) | activity at 400 ppm (Nilaparvata lugens [4])

O=C(CCCC=C(F)F)OCCOc1ccc(OC(=O)Oc2ccccc2)cc1 [Compound 2.23]
> 80%: activity at 400 ppm (Aphis craccivora) | pest or weed control at 400 ppm (Heliothis virescens) | activity at 400 ppm [1] | pest or weed control at 100 ppm (Ctenocephalides felis) | activity at 400 ppm (Nilaparvata lugens [2]) | activity at 400 ppm [3] | activity at 400 ppm (Tetranychus urticae) | activity at 400 ppm (Nephotettix cincticeps [6]) | activity at 400 ppm (Nilaparvata lugens [4]) | pest or weed control at 400 ppm (Bemisia tabaci)
